# Measured values reported in the supplement of paper PMC10307832.
# Experiments:
# Assay in all cases: relative viability (nuclei count vs DMSO), 5 days (fraction); higher = more cells survive
# [1] = compound: CC(C)C[C@@H](C(=O)N[C@H](C(=O)OC1CCCC1)c1ccccc1)[C@H](O)C(=O)NO [Tosedostat] + Cc1cc(Nc2cc(N3CCN(C)CC3)nc(Sc3ccc(NC(=O)C4CC4)cc3)n2)n[nH]1 [Tozasertib] (partner 0.1 µM)
# In short: (§1)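 Each reported value is a median over duplicate plates. It expresses relative viability: treated-well nuclei count divided by vehicle-well nuclei count. Lung cancer cell lines in 1536-well plates were dosed by pin tool a day after seeding, alone with one drug or with a fixed anchor-drug dose plus five library-drug doses (not always all listed) in √10 steps, and nuclei were counted after 5 days.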
# [2] = compound: CC1=NN=C(O1)C2=NN=C(C=C2)N3CCC(CC3)OC4=C(C=CC(=C4)F)Cl + CC(=O)c1c(C)c2cnc(Nc3ccc(N4CCNCC4)cn3)nc2n(C2CCCC2)c1=O [Palbociclib] (partner 0.5 µM)
# In short: as §1
# [3] = compound: CC1=NN=C(O1)C2=NN=C(C=C2)N3CCC(CC3)OC4=C(C=CC(=C4)F)Cl + CS(=O)(=O)CCNCc1ccc(-c2ccc3ncnc(Nc4ccc(OCc5cccc(F)c5)c(Cl)c4)c3c2)o1 [Lapatinib] (partner 2 µM)
# In short: as §1
# [4] = compound: CC1=NN=C(O1)C2=NN=C(C=C2)N3CCC(CC3)OC4=C(C=CC(=C4)F)Cl + O=C(c1cc(Cc2n[nH]c(=O)c3ccccc23)ccc1F)N1CCN(C(=O)C2CC2)CC1 [Olaparib] (partner 8 µM)
# In short: as §1
cell line,measurement,setting,value
UMC-11,relative viability,[1]; first compound 0.02 µM,0.214
same,relative viability,[1]; first compound 0.06325 µM,0.195
same,relative viability,[1]; first compound 0.2 µM,0.206
same,relative viability,[1]; first compound 0.6325 µM,0.197
same,relative viability,[1]; first compound 2 µM,0.194
same,relative viability,[2]; first compound 0.253 µM,0.303
same,relative viability,[2]; first compound 0.8 µM,0.271
same,relative viability,[2]; first compound 2.53 µM,0.3
same,relative viability,[2]; first compound 8 µM,0.39
same,relative viability,[3]; first compound 0.253 µM,0.641
same,relative viability,[3]; first compound 0.8 µM,0.645
same,relative viability,[3]; first compound 2.53 µM,0.777
same,relative viability,[3]; first compound 8 µM,0.595
same,relative viability,[4]; first compound 0.253 µM,0.244
same,relative viability,[4]; first compound 0.8 µM,0.379
same,relative viability,[4]; first compound 2.53 µM,0.396
same,relative viability,[4]; first compound 8 µM,0.233
